The assay addresses Envelope glycoprotein gp160 (Human immunodeficiency virus 1, UniProt Q6QLK5). Description: inhibitors of HIV fusion peptide binding, primary screen, biochemical, uHTS, fluorescence dequenching (AID 1986).

Calls of active or inactive are those of the source. Cut-off read from the data, not from the text of the source: actives have a measured IC50 and inactives only a lower limit.

Sequence of Envelope glycoprotein gp160 (Q6QLK5 whole entry, the tested form may be a part): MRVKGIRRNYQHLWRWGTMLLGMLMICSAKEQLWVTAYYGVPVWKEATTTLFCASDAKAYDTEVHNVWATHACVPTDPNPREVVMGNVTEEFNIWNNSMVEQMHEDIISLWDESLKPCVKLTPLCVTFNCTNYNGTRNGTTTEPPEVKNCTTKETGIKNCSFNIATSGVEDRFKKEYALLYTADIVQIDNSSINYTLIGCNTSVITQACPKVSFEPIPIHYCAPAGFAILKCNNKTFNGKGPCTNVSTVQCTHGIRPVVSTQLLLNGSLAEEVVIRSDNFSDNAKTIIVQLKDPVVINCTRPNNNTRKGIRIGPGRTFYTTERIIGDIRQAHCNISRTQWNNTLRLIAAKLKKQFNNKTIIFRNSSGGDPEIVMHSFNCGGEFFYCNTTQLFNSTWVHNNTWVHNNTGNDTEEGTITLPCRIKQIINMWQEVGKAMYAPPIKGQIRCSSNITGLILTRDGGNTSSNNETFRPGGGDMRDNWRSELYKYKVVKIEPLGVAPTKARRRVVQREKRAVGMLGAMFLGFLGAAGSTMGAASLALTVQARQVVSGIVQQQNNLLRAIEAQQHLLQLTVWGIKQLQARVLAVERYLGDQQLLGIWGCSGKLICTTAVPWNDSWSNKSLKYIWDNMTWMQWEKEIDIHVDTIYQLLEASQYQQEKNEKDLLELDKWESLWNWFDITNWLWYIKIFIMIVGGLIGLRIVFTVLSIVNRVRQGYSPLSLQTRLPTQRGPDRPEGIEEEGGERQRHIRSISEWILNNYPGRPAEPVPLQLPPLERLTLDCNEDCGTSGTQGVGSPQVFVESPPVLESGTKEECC

In general, IC50 refers to the concentration needed to halve the response being measured. As for `CC(/C=C1\SC(=S)N(c2ccc(C(=O)O)cc2)C1=O)=C\c1ccccc1`, the IC50 is 16.2 µM (active).
For the compound `C=CCOc1ccc(C(c2c(C(=O)O)[nH]c3ccccc23)c2c(C(=O)O)[nH]c3ccccc23)cc1`, the IC50 is 5.01 µM (active).

(Values after ChEMBL document CHEMBL1201862, “PubChem BioAssay data set” (2004).)
